Measured values published in US4489052A, “Quantitative autoradiographic mapping of focal herpes simplex virus encephalitis using a radiolabeled antiviral drug” (priority 1982, dated 1984).

Columns and labels:
[1] = rat; cited from earlier work
HSV = settings: NIAID Collaborative Study; cited from earlier work
[2] = rat, in vivo
Text: (§1) These initial studies reflect observations on ten rats receiving ^14 C-FMAU. Seven of these were infected, and three uninfected control rats were subjected to a cortical freeze lesion (13) to test the effects of necrosis and breakdown of the blood-brain barrier on drug distribution.

HSV-1 = test: Quantitative autoradiography of ^14 C-FMAU uptake in HSV-1-infected rats (focal encephalitis); settings: for ^14 C Radioactivity Concentration: ± SD
Text: as §1

[3] = Arterial plasma ^14 C activity by liquid scintillation counting; settings: representative infected rat

Cc1cn([C@@H]2O[C@H](CO)[C@@H](O)[C@@H]2F)c(=O)[nH]c1=O [FMAU]
metabolic alteration [1]: only a minor fraction undergoes metabolic alteration

Nc1ncnc2c1ncn2[C@@H]1O[C@H](CO)[C@@H](O)[C@@H]1O [ara-A]
therapeutic effect in HSV encephalitis (HSV): less than optimal

Cc1cn([C@@H]2O[C@H](CO)[C@@H](O)[C@@H]2F)[14c](=O)[nH]c1=O [^14 C-FMAU]
isotope uptake in or surrounding the area of necrosis [2]: no increase in isotope uptake was detected
isotope uptake within infected brain regions (HSV-1; 24 hours after isotope injection): similarly enhanced within infected brain regions
activity in lateral walls of the lateral ventricles (HSV-1; 24 hours, apparently uninfected ependymal lining): higher activity was noted
^14 C Radioactivity Concentration (HSV-1; Brain (C): Background, left cortex, viral antigen -, 6 hours): 104.35 ± 4.88 nCi/gm
^14 C Radioactivity Concentration (HSV-1; Brain (C): Left ventricular choroid plexus, viral antigen -, 6 hours): 188.59 ± 9.18 nCi/gm
^14 C Radioactivity Concentration (HSV-1; Brain (C): Optic chiasm, right, viral antigen +, 6 hours): 325.12 ± 16.46 nCi/gm
^14 C Radioactivity Concentration (HSV-1; Brain (D): Background, left cortex, viral antigen -, 6 hours): 95.29 ± 4.32 nCi/gm
^14 C Radioactivity Concentration (HSV-1; Brain (D): Left hypothalamus, viral antigen +, 6 hours): 1170.91 ± 66.90 nCi/gm
^14 C Radioactivity Concentration (HSV-1; Brain (D): Left optic tract, viral antigen +, 6 hours): 1105.89 ± 77.34 nCi/gm
^14 C Radioactivity Concentration (HSV-1; Brain (D): Right hypothalamus, viral antigen +, 6 hours): 1138.10 ± 99.57 nCi/gm
^14 C Radioactivity Concentration (HSV-1; Brain (E): Background, left cortex, viral antigen -, 6 hours): 96.78 ± 4.66 nCi/gm
^14 C Radioactivity Concentration (HSV-1; Brain (E): Background, right central thalamus, viral antigen -, 6 hours): 67.47 ± 3.90 nCi/gm
^14 C Radioactivity Concentration (HSV-1; Brain (E): Left dorsomedial thalamus, viral antigen +, 6 hours): 1183.53 ± 163.31 nCi/gm
^14 C Radioactivity Concentration (HSV-1; Brain (E): Left lateral thalamus, viral antigen +, 6 hours): 198.21 ± 21.00 nCi/gm
^14 C Radioactivity Concentration (HSV-1; Brain (F): Background, left cortex, viral antigen -, 6 hours): 106.57 ± 5.53 nCi/gm
^14 C Radioactivity Concentration (HSV-1; Brain (F): Central midbrain, viral antigen +, 6 hours): 468.81 ± 23.96 nCi/gm
^14 C Radioactivity Concentration (HSV-1; Brain (G): Background, central brainstem, viral antigen -, 6 hours): 110.97 ± 9.98 nCi/gm
^14 C Radioactivity Concentration (HSV-1; Brain (G): Background, left cortex, viral antigen -, 6 hours): 83.08 ± 7.70 nCi/gm
^14 C Radioactivity Concentration (HSV-1; Brain (G): Pineal gland, viral antigen +, 6 hours): 1509.18 ± 97.65 nCi/gm
^14 C Radioactivity Concentration (HSV-1; Eye (B): Retina, inferior, viral antigen +, 6 hours): 1528.07 ± 140.36 nCi/gm
^14 C Radioactivity Concentration (HSV-1; Eye (B): Retina, posterior, viral antigen +, 6 hours): 2447.81 ± 172.66 nCi/gm
^14 C Radioactivity Concentration (HSV-1; Liver, viral antigen staining -, 6 hours after ^14 C-FMAU (5 mg/kg i.v.)): 188.25 ± 13.19 nCi/gm
^14 C activity within infected regions vs background (HSV-1; each HSV-1-infected rat): exceeded background within infected regions and correlating closely with viral antigen staining in each case
selectivity of uptake by infected brain cells (HSV-1; radiolabeled FMAU, HSV-1 infection): selectively taken up by infected brain cells
background distribution of ^14 C activity (HSV-1; uninfected brain regions, 6 hours): quite uniform, with only minor variations among uninfected brain regions
plasma ^14 C-FMAU concentration time course ([3]; 5 mg/kg i.v., to 6 hours): fell rapidly over the first 30 mins and more slowly thereafter
plasma ^14 C-FMAU concentration at the time of sacrifice ([3]; 6 hours after 5 mg/kg i.v.): approximately 185 nCi/gm
